Test results published in ChEMBL document CHEMBL6127062, “Targeted degradation of METTL3 against acute myeloid leukemia and gastric cancer” (Eur J Med Chem, 2024).
Activity calls are given as the source filed them. The rule behind the calls is not given here.

How the values were obtained:
Gastric cancer organoid [1] = experiment: Anti-proliferative activity against patient derived GA215T organoids assessed as suppression of tumor growth incubated for 5 days by Celltiter-glo viability assay; format: functional, tissue-based; conditions: Homo sapiens; Neoplasm; time 5.0 day
MOLM-13 [2] = experiment: Induction of apoptosis in human MOLM-13 cells at 5 uM incubated for 48 hrs by Annexin V/PI staining based flow cytometry analysis; format: functional, cell-based
[3] = target: T1, von Hippel-Lindau disease tumor suppressor/N(6)-adenosine-methyltransferase catalytic subunit METTL3 (Homo sapiens, UniProt P40337+Q86U44); experiment: PROTAC activity at VHL/METTL3 in HEK293T cells assessed as induction of METTL3 degradation at 1 uM preincubated with MG132 for 2.5 hrs followed by compound addition and measured after 6 hrs by Western blot analysis; format: cell-based
Target sequence in this assay (Q86U44 2-580 partner limits assumed): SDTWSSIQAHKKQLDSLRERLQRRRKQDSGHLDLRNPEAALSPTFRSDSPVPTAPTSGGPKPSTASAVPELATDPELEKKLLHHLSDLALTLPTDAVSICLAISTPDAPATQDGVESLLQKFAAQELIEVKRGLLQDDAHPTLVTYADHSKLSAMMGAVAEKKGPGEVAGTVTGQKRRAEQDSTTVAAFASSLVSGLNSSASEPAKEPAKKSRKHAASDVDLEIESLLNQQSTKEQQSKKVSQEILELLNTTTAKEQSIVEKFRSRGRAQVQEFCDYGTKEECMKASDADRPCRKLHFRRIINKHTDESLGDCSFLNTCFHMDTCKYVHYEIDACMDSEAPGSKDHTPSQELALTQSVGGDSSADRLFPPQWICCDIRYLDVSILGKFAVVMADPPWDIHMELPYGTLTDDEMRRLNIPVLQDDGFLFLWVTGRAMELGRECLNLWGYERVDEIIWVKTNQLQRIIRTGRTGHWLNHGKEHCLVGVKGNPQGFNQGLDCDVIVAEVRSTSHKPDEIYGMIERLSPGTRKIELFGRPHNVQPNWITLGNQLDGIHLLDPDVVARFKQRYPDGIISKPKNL
Target sequence in this assay (P40337 whole entry): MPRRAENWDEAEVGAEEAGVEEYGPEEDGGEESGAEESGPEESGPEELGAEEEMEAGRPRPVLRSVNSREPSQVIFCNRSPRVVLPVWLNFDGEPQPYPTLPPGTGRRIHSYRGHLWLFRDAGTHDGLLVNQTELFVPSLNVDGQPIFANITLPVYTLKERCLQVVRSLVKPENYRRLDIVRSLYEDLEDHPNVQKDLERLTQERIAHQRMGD

[4] = target: T1, von Hippel-Lindau disease tumor suppressor/N(6)-adenosine-methyltransferase catalytic subunit METTL3; experiment: PROTAC activity at VHL/METTL3 expressed in human SNU-484 cells assessed as reduction of METTL3 protein level in nucleus fraction at 1 uM incubated for 24 hrs by Western blot analysis; format: cell-based
Target sequence in this assay (Q86U44 2-580 partner limits assumed): as the sequence (Q86U44 2-580 partner limits assumed) above
Target sequence in this assay (P40337 whole entry): as the sequence (P40337 whole entry) above

[5] = target: T1, von Hippel-Lindau disease tumor suppressor/N(6)-adenosine-methyltransferase catalytic subunit METTL3; experiment: (§1) Binding affinity to N-Luc tagged METTL3 (unknown origin)/Halo-tagged VHL (unknown origin) expressed in HEK293T cells assessed as ternary complex formation by measuring decrease in BRET ratio at 30 uM preincubated with epoxomicin for 2 hrs followed by compound addition and measured after 4.5 hrs by NanoBRET assay; format: cell-based
Target sequence in this assay (Q86U44 2-580 partner limits assumed): as the sequence (Q86U44 2-580 partner limits assumed) above
Target sequence in this assay (P40337 whole entry): as the sequence (P40337 whole entry) above

MOLM-13 [6] = experiment: Downregulation of C-Myc protein level expression in human MOLM-13 cells incubated for 24 hrs by Western blot analysis; format: functional, cell-based
[7] = target: N6-adenosine-methyltransferase catalytic subunit (Homo sapiens) (UniProt Q86U44); experiment: Induction of thermal stabilization of endogenous METTL3 in human MOLM-13 cells incubated for 1 hrs by cellular thermal shift assay; format: cell-based
Sequence of N6-adenosine-methyltransferase catalytic subunit (Homo sapiens) (Q86U44 whole entry): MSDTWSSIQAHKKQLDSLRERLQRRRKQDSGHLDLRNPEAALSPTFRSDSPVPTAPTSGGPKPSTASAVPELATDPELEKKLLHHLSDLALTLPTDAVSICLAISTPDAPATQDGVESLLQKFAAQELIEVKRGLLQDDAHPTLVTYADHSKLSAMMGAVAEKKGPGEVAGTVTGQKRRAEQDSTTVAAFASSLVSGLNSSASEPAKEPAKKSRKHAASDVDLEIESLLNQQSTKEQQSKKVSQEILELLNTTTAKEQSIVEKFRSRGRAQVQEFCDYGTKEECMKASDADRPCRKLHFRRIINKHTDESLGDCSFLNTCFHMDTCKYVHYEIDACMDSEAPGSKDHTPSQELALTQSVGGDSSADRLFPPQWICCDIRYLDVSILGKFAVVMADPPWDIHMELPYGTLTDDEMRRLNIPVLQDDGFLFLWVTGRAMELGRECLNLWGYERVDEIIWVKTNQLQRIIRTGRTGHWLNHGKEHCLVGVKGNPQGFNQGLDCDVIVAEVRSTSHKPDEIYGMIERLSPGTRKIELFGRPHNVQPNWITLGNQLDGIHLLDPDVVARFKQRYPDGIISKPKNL

GES1 [8] = experiment: Anticancer activity against human GES1 cells assessed as inhibition of cell growth incubated for 72 hrs by cell viability assay; format: functional, cell-based; conditions: GES1, 72 h
[9] = target: T1, von Hippel-Lindau disease tumor suppressor/N(6)-adenosine-methyltransferase catalytic subunit METTL3; experiment: PROTAC activity at VHL/METTL3 in human MOLM-13 cells assessed as induction of METTL3 degradation at 1 uM incubated for 4 hrs by Western blot analysis relative to control; format: cell-based
Target sequence in this assay (Q86U44 2-580 partner limits assumed): as the sequence (Q86U44 2-580 partner limits assumed) above
Target sequence in this assay (P40337 whole entry): as the sequence (P40337 whole entry) above

Gastric cancer organoid [10] = experiment: Anti-proliferative activity against patient derived GA352T organoids assessed as suppression of tumor growth incubated for 5 days by Celltiter-glo viability assay; format: functional, tissue-based; conditions: Homo sapiens; Neoplasm; time 5.0 day
[11] = target: T1, von Hippel-Lindau disease tumor suppressor/N(6)-adenosine-methyltransferase catalytic subunit METTL3; experiment: PROTAC activity at VHL/METTL3 in HEK293T cells assessed as induction of METTL3 degradation at 1 uM preincubated with epoxomicin for 2.5 hrs followed by compound addition and measured after 6 hrs by Western blot analysis; format: cell-based
Target sequence in this assay (Q86U44 2-580 partner limits assumed): as the sequence (Q86U44 2-580 partner limits assumed) above
Target sequence in this assay (P40337 whole entry): as the sequence (P40337 whole entry) above

[12] = target: T1, von Hippel-Lindau disease tumor suppressor/N(6)-adenosine-methyltransferase catalytic subunit METTL3; experiment: PROTAC activity at VHL/METTL3 expressed in human AGS cells assessed as reduction of METTL3 protein level in nucleus fraction at 1 uM incubated for 24 hrs by Western blot analysis; format: cell-based
Target sequence in this assay (Q86U44 2-580 partner limits assumed): as the sequence (Q86U44 2-580 partner limits assumed) above
Target sequence in this assay (P40337 whole entry): as the sequence (P40337 whole entry) above

[13] = target: T1, von Hippel-Lindau disease tumor suppressor/N(6)-adenosine-methyltransferase catalytic subunit METTL3; experiment: PROTAC activity at VHL/METTL3 in human MOLM-13 cells assessed as induction of METTL3 degradation at 10 uM preincubated with UZH2 for 2 hrs followed by compound addition and measured after 24 hrs by Western blot analysis; format: cell-based
[14] = target: T1, von Hippel-Lindau disease tumor suppressor/N(6)-adenosine-methyltransferase catalytic subunit METTL3; experiment: PROTAC activity at VHL/METTL3 in human MOLM-13 cells assessed as induction of METTL3 degradation at 10 uM by Western blot analysis relative to control; format: cell-based
GES1 [15] = experiment: Cytotoxicity against human GES1 cells assessed as reduction in cell viability incubated for 24 hrs; format: toxicity, cell-based; conditions: ges1, 24 h
[16] = target: T1, von Hippel-Lindau disease tumor suppressor/N(6)-adenosine-methyltransferase catalytic subunit METTL3; experiment: PROTAC activity at VHL/METTL3 in human MOLM-13 cells assessed as induction of METTL3 degradation incubated for 24 hrs by Western blot analysis; format: cell-based
[17] = target: N6-adenosine-methyltransferase catalytic subunit (Homo sapiens) (UniProt Q86U44); experiment: Induction of thermal stabilization of METTL3 in human MOLM-13 cells at 52.4 to 54.8 degreeC incubated for 1 hrs by cellular thermal shift assay; format: cell-based
[18] = target: T1, von Hippel-Lindau disease tumor suppressor/N(6)-adenosine-methyltransferase catalytic subunit METTL3; experiment: PROTAC activity at VHL/METTL3 in human MOLM-13 cells assessed as induction of METTL3 degradation at 1 uM by Western blot analysis; format: cell-based; conditions: time 4-24 hrs, TDE = time-dependent effect
HeLa = experiment: Binding affinity to METTL3/GFP-fused BRD4 (unknown origin) expressed in HeLa cells presence of MZ1 by Western blot analysis; format: cell-based; conditions: Homo sapiens
[19] = target: T1, von Hippel-Lindau disease tumor suppressor/N(6)-adenosine-methyltransferase catalytic subunit METTL3; experiment: as §1, with “increase” for “decrease”, “1” for “30”; format: cell-based
[20] = Anticancer activity against human SNU484 cells assessed as inhibition of cell growth incubated for 72 hrs by cell viability assay; format: functional, cell-based; conditions: SNU-484, 72 h
[21] = target: T1, von Hippel-Lindau disease tumor suppressor/N(6)-adenosine-methyltransferase catalytic subunit METTL3; experiment: PROTAC activity at VHL/METTL3 in human MOLM-13 cells assessed as induction of METTL3 degradation at 10 uM preincubated with VH032 for 2 hrs followed by compound addition and measured after 24 hrs by Western blot analysis; format: cell-based
[22] = target: T1, von Hippel-Lindau disease tumor suppressor/N(6)-adenosine-methyltransferase catalytic subunit METTL3; experiment: PROTAC activity at VHL/METTL3 (unknown origin) expressed in HeLa cells assessed as BRD4-eGFP_mCherry level incubated for 4 hrs in presence of MZ1 by flow cytometry analysis; format: cell-based
[23] = target: T1, von Hippel-Lindau disease tumor suppressor/N(6)-adenosine-methyltransferase catalytic subunit METTL3; experiment: PROTAC activity at VHL/METTL3 expressed in human SNU-484 cells assessed as reduction of cytoplasmic METTL3 protein level at 1 uM incubated for 24 hrs by Western blot analysis; format: cell-based
MOLM-13 [24] = experiment: Antiproliferative activity against human MOLM-13 cells assessed as inhibition of cell proliferation measured after 72 hrs by Celltiter Glo luminescent cell viability assay; format: functional, cell-based; conditions: MOLM-13, 72 h
[25] = target: T1, von Hippel-Lindau disease tumor suppressor/N(6)-adenosine-methyltransferase catalytic subunit METTL3; experiment: Binding affinity to N-Luc tagged METTL3 (unknown origin)/Halo-tagged VHL (unknown origin) HA-Ub expressed in HEK293T cells assessed as ternary complex formation by measuring increase ubiquitination level at 1 uM preincubated with epoxomicin for 2.5 hrs followed by compound addition and measured after 6 hrs by NanoBRET assay; format: cell-based
METTL3/METTL14 = METTL3/METTL14 (Homo sapiens, UniProt Q86U44); experiment: Inhibition of METTL3/METTL14 (unknown origin) using Oligo ssRNA as substrate incubated for 20 min by Hotspot RNA methyltransferase assay; format: protein-complex assay
Sequence of METTL3/METTL14 (Q86U44 whole entry): as the sequence (Q86U44 whole entry) above
Sequence of METTL3/METTL14 (Q9HCE5 whole entry, further chain): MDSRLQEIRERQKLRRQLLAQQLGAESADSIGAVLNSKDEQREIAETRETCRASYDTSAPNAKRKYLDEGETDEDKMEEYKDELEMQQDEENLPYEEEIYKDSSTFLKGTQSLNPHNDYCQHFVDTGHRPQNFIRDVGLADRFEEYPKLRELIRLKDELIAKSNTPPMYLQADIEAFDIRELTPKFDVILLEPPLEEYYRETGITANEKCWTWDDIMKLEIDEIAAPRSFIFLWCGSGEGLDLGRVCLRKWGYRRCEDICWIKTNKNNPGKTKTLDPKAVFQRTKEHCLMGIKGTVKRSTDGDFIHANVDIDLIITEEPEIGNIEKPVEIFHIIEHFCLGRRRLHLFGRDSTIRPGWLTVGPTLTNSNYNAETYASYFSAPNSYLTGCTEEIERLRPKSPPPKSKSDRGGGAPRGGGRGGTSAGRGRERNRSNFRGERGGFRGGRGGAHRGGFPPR

[26] = target: T1, von Hippel-Lindau disease tumor suppressor/N(6)-adenosine-methyltransferase catalytic subunit METTL3; experiment: PROTAC activity at VHL/METTL3 in human MOLM-13 cells assessed as induction of METTL3 degradation incubated for 4 to 24 hrs by Western blot analysis relative to control; format: cell-based; conditions: time 4-24 hrs
HL-60 = experiment: Antiproliferative activity against human HL-60 cells assessed as cell growth inhibition after 72 hrs by Celltiter Glo luminescent cell viability assay; format: functional, cell-based
[27] = target: T1, von Hippel-Lindau disease tumor suppressor/N(6)-adenosine-methyltransferase catalytic subunit METTL3; experiment: PROTAC activity at VHL/METTL3 in HEK293T cells assessed as induction of METTL3 degradation at 1 uM preincubated with MLN4924 for 2.5 hrs followed by compound addition and measured after 6 hrs by Western blot analysis; format: cell-based
[28] = target: T1, von Hippel-Lindau disease tumor suppressor/N(6)-adenosine-methyltransferase catalytic subunit METTL3; experiment: PROTAC activity at VHL/METTL3 in human MOLM-13 cells assessed as induction of METTL3 degradation at 1 uM incubated for 24 hrs by Western blot analysis relative to control; format: cell-based
AGS = experiment: Anticancer activity against human AGS cells assessed as inhibition of cell growth incubated for 72 hrs by cell viability assay; format: functional, cell-based
[29] = target: T1, von Hippel-Lindau disease tumor suppressor/N(6)-adenosine-methyltransferase catalytic subunit METTL3; experiment: PROTAC activity at VHL/METTL3 (unknown origin) expressed in HeLa cells incubated for 4 hrs presence of MZ1 by flow cytometry analysis; format: cell-based
[30] = target: T1, von Hippel-Lindau disease tumor suppressor/N(6)-adenosine-methyltransferase catalytic subunit METTL3; experiment: PROTAC activity at VHL/METTL3 in human MOLM-13 cells assessed as induction of METTL3 degradation at 1 uM by Western blot analysis relative to control; format: cell-based
MOLM-14 = experiment: Antiproliferative activity against human MOLM-14 cells assessed as cell growth inhibition after 72 hrs by Celltiter Glo luminescent cell viability assay; format: functional, cell-based
[31] = target: T1, von Hippel-Lindau disease tumor suppressor/N(6)-adenosine-methyltransferase catalytic subunit METTL3; experiment: PROTAC activity at VHL/METTL3 expressed in human AGS cells assessed as reduction of cytoplasmic METTL3 protein level at 1 uM incubated for 24 hrs by Western blot analysis; format: cell-based
[32] = target: T1, von Hippel-Lindau disease tumor suppressor/N(6)-adenosine-methyltransferase catalytic subunit METTL3; experiment: PROTAC activity at VHL/METTL3 in HEK293T cells assessed as induction of METTL3 degradation at 1 uM preincubated with 3MA autophagy inhibitor for 2.5 hrs followed by compound addition and measured after 6 hrs by Western blot analysis; format: cell-based
[33] = target: T2, Protein cereblon/N(6)-adenosine-methyltransferase catalytic subunit METTL3 (Homo sapiens) (UniProt Q96SW2+Q86U44); experiment: PROTAC activity at CRBN/METTL3 in human MOLM-13 cells assessed as induction of METTL3 degradation at 10 uM by Western blot analysis relative to control; format: cell-based
T2 sequence (Q86U44 whole entry, looked up): as the sequence (Q86U44 whole entry) above
T2 sequence (Q96SW2 whole entry, looked up): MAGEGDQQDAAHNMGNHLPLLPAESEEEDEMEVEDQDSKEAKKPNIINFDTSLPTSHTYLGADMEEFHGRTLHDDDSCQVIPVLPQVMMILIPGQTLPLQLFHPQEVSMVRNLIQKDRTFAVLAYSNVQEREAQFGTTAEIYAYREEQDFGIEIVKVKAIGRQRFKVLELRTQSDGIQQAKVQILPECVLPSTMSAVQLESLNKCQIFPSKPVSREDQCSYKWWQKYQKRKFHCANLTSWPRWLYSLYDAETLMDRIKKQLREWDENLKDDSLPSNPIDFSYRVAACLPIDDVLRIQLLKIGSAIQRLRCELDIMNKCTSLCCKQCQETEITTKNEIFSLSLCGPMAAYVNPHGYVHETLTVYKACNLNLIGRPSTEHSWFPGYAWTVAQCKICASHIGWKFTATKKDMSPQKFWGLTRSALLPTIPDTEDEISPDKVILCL

[34] = target: T2, Protein cereblon/N(6)-adenosine-methyltransferase catalytic subunit METTL3 (Homo sapiens); experiment: PROTAC activity at CRBN/METTL3 in human MOLM-13 cells assessed as induction of METTL3 degradation at 1 uM by Western blot analysis relative to control; format: cell-based
[35] = target: T1, von Hippel-Lindau disease tumor suppressor/N(6)-adenosine-methyltransferase catalytic subunit METTL3; experiment: PROTAC activity at VHL/METTL3 in human MOLM-13 cells assessed as reduction in METTL3 level at 1 uM incubated for 24 hrs by Western blot analysis; format: cell-based
[36] = target: T1, von Hippel-Lindau disease tumor suppressor/N(6)-adenosine-methyltransferase catalytic subunit METTL3; experiment: PROTAC activity at VHL/METTL3 (unknown origin) expressed in HeLa cells assessed as reduction in BRD4-eGFP_mCherry level incubated for 4 hrs in presence of MZ1 by flow cytometry analysis; format: cell-based

Cc1ncsc1-c1ccc(CNC(=O)[C@@H]2C[C@@H](O)CN2C(=O)[C@@H](NC(=O)CCCCCCCNc2cc(N3CCC4(CC3)CN(c3cc(F)c(CN5CCC(C)(C)CC5)cc3F)CC(=O)N4)ncn2)C(C)(C)C)cc1
Activity (Gastric cancer organoid [1]): Active | Activity (MOLM-13 [2]): Active | Activity [3]: inactive | Activity [4]: Active | Activity [5]: inactive | Activity (MOLM-13 [6]): Dose-Dependent Effect | Activity [7]: Dose-Dependent Effect | IC50 (GES1 [8]): > 50000 nM | Activity [9]: > 50% | Activity (Gastric cancer organoid [10]): Active | Activity [11]: inactive | Activity [12]: Active | Activity [13]: inactive | Activity [14]: 50% | Activity (GES1 [15]): Toxic | Activity [16]: Dose-Dependent Effect | DC50 [16]: 220 nM | Activity [17]: Active | Activity [18]: Tde | Activity (HeLa): Active | Activity [19]: Active | IC50 [20]: 3000 nM | Activity [21]: Active | Activity [22]: inactive | Activity [23]: Active | IC50 (MOLM-13 [24]): 1040 nM | Activity [25]: Active | IC50 (METTL3/METTL14): 341 nM | Activity [26]: Dose-Dependent Effect | Activity (HL-60): Active | Activity [27]: inactive | Activity [28]: 90% | IC50 (AGS): 1480 nM | Activity [29]: Active | Activity [30]: 84% | Activity (MOLM-14): Active | Activity [31]: Active | Activity [32]: Active

CC1(C)CCN(Cc2cc(F)c(N3CC(=O)NC4(CCN(c5cc(NCCCCCCCC(=O)N6CCN(c7ccc8c(c7)C(=O)N(C7CCC(=O)NC7=O)C8=O)CC6)ncn5)CC4)C3)cc2F)CC1 (stereo unspecified)
Activity [33]: 29% | Activity [34]: 33%

Cc1ncsc1-c1ccc(CNC(=O)[C@@H]2C[C@@H](O)CN2C(=O)[C@@H](NC(=O)CCCCCCCCCCNc2cc(N3CCC4(CC3)CN(c3cc(F)c(CN5CCC(C)(C)CC5)cc3F)CC(=O)N4)ncn2)C(C)(C)C)cc1
Activity [14]: 55% | Activity [30]: 34%

Cc1ncsc1-c1ccc(CNC(=O)[C@@H]2C[C@H](O)CN2C(=O)[C@@H](NC(=O)CCCCCCCNc2cc(N3CCC4(CC3)CN(c3cc(F)c(CN5CCC(C)(C)CC5)cc3F)CC(=O)N4)ncn2)C(C)(C)C)cc1
Activity [35]: inactive | Activity [36]: Active | Activity [17]: Active | Activity (HeLa): Active
